Reference: US11957687B2 (REGENERON PHARMACEUTICALS, INC., priority 2019, dated 2024)

These compounds were tested against HSD17B13 (Homo sapiens (Human), UniProt Q7Z5P4) (assay: HSD17B13 enzymatic inhibition assay (150 nM or 50 nM HSD17B13)). Conditions: 50 nM HSD17B13; read-out: Inhibition of 50 nM of HSD17B13 IC50.
HSD17B13, sequence (Q7Z5P4 other isoform, or with tags, fused parts or gaps): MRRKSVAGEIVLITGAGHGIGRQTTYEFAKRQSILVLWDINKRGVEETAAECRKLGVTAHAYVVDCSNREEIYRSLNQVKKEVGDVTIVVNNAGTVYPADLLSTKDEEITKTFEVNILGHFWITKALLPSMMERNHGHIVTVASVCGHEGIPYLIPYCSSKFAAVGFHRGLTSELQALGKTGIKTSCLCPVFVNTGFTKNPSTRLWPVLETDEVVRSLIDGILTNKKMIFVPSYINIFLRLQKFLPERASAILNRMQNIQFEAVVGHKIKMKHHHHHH
Format: biochemical
An IC50 of 430 nM was found for `CCc1cc(C(F)(F)F)[nH]c(=O)c1C(=O)NC1c2ccc(C)cc2Oc2cc(C)ccc21` [Compound 201, N-(3,6-dimethyl-9H-xanthen-9-yl)-4-ethyl-2-oxo-6-(trifluoromethyl)-1,2-dihydropyridine-3-carboxamide] in this work.
An IC50 of 350 nM was found for `Cc1ccc2c(c1)Oc1cc(C)ccc1C2NC(=O)c1c(C)cc(C(F)(F)F)[nH]c1=O` [Compound 202, N-(3,6-dimethyl-9H-xanthen-9-yl)-4-methyl-2-oxo-6-(trifluoromethyl)-1,2-dihydropyridine-3-carboxamide] in this work.
An IC50 of 1050 nM was found for `Cc1cc(C(F)(F)F)[nH]c(=O)c1C(=O)NC1c2ccc(Cl)cc2Oc2cc(Cl)ccc21` [Compound 203, N-(3,6-dichloro-9H-xanthen-9-yl)-4-methyl-2-oxo-6-(trifluoromethyl)-1,2-dihydropyridine-3-carboxamide] in this work.
An IC50 greater than 10000 nM was found for `CCc1cc(C(F)(F)F)[nH]c(=O)c1C(=O)NC1c2ccc(C)cc2Oc2cccc(C)c21` (stereo not shown) [Compound 204, N-(1,6-dimethyl-9H-xanthen-9-yl)-4-ethyl-2-oxo-6-(trifluoromethyl)-1,2-dihydropyridine-3-carboxamide] in this work.
An IC50 greater than 10000 nM was found for `CCc1cc(C(F)(F)F)[nH]c(=O)c1C(=O)NC1c2ccc(Cl)cc2Oc2cccc(Cl)c21` (stereo not shown) [Compound 205, N-(1,6-dichloro-9H-xanthen-9-yl)-4-ethyl-2-oxo-6-(trifluoromethyl)-1,2-dihydropyridine-3-carboxamide] in this work.
An IC50 of 290 nM was found for `CCc1cc(C(F)(F)F)[nH]c(=O)c1C(=O)NC1c2ccc(Cl)cc2Oc2cc(Cl)ccc21` [Compound 206, N-(3,6-dichloro-9H-xanthen-9-yl)-4-ethyl-2-oxo-6-(trifluoromethyl)-1,2-dihydropyridine-3-carboxamide] in this work.
An IC50 of 180 nM was found for `CCCc1cc(C(F)(F)F)[nH]c(=O)c1C(=O)NC1c2ccc(C)cc2Oc2cc(C)ccc21` [Compound 207, N-(3,6-dimethyl-9H-xanthen-9-yl)-2-oxo-4-propyl-6-(trifluoromethyl)-1,2-dihydropyridine-3-carboxamide] in this work.
An IC50 greater than 10000 nM was found for `CCCc1cc(C(F)(F)F)[nH]c(=O)c1C(=O)NC1c2ccc(C)cc2Oc2cccc(C)c21` (stereo not shown) [Compound 208, N-(1,6-dimethyl-9H-xanthen-9-yl)-2-oxo-4-propyl-6-(trifluoromethyl)-1,2-dihydropyridine-3-carboxamide] in this work.
An IC50 of 3440 nM was found for `CCCc1cc(C(F)(F)F)[nH]c(=O)c1C(=O)NC1c2ccc(Cl)cc2Oc2cccc(Cl)c21` (stereo not shown) [Compound 209, N-(1,6-dichloro-9H-xanthen-9-yl)-2-oxo-4-propyl-6-(trifluoromethyl)-1,2-dihydropyridine-3-carboxamide] in this work.
An IC50 of 930 nM was found for `CCCc1cc(C(F)(F)F)[nH]c(=O)c1C(=O)NC1c2ccc(Cl)cc2Oc2cc(Cl)ccc21` [Compound 210, N-(3,6-dichloro-9H-xanthen-9-yl)-2-oxo-4-propyl-6-(trifluoromethyl)-1,2-dihydropyridine-3-carboxamide] in this work.
An IC50 of 870 nM was found for `Cc1cc(C(=O)NC2c3ccc(Cl)cc3Oc3cccc(Cl)c32)c(=O)[nH]c1C(F)(F)F` (stereo not shown) [Compound 211, N-(1,6-dichloro-9H-xanthen-9-yl)-5-methyl-2-oxo-6-(trifluoromethyl)-1,2-dihydropyridine-3-carboxamide] in this work.
An IC50 greater than 10000 nM was found for `CCc1ccc(C(=O)NC2c3ccccc3-c3ccccc32)c(=O)[nH]1` [Compound 212, 6-ethyl-N-(9H-fluoren-9-yl)-2-oxo-1,2-dihydropyridine-3-carboxamide] in this work.
An IC50 of 2240 nM was found for `Cc1cc(C(F)(F)F)[nH]c(=O)c1C(=O)NC1c2ccccc2-c2ccccc21` [Compound 213, N-(9H-fluoren-9-yl)-4-methyl-2-oxo-6-(trifluoromethyl)-1,2-dihydropyridine-3-carboxamide] in this work.
An IC50 greater than 10000 nM was found for `Cc1c(C(F)(F)F)[nH]c(=O)c(C(=O)NC2c3ccccc3-c3ccccc32)c1C` [Compound 214, N-(9H-fluoren-9-yl)-4,5-dimethyl-2-oxo-6-(trifluoromethyl)-1,2-dihydropyridine-3-carboxamide] in this work.
An IC50 of 3190 nM was found for `O=C(NCc1ccc(Cl)cc1Oc1cccc(Cl)c1)c1ccc(C(F)(F)F)[nH]c1=O` [Compound 216, N-(4-chloro-2-(3-chlorophenoxy)benzyl)-2-oxo-6-(trifluoromethyl)-1,2-dihydropyridine-3-carboxamide] in this work.
An IC50 of 8310 nM was found for `O=C(NCC1c2ccccc2-c2ccccc21)c1ccc(C(F)(F)F)[nH]c1=O` [Compound 217, N-((9H-fluoren-9-yl)methyl)-2-oxo-6-(trifluoromethyl)-1,2-dihydropyridine-3-carboxamide] in this work.
An IC50 of 9550 nM was found for `Cc1ccc(C(C)NC(=O)c2ccc(C(F)(F)F)[nH]c2=O)cc1` (stereo not shown) [Compound 218] in this work.
An IC50 greater than 10000 nM was found for `O=C(NC(c1ccc(Cl)cc1)c1ccncn1)c1ccc(C(F)(F)F)[nH]c1=O` (stereo not shown) [Compound 219, N-((4-chlorophenyl)(pyrimidin-4-yl)methyl)-2-oxo-6-(trifluoromethyl)-1,2-dihydropyridine-3-carboxamide] in this work.
An IC50 greater than 10000 nM was found for `O=C(NC(c1ccc(Cl)cc1)c1cncnc1)c1ccc(C(F)(F)F)[nH]c1=O` (stereo not shown) [Compound 220, N-((4-chlorophenyl)(pyrimidin-5-yl)methyl)-2-oxo-6-(trifluoromethyl)-1,2-dihydropyridine-3-carboxamide] in this work.
An IC50 of 6400 nM was found for `O=C(NC(c1ccccc1)c1cccc(=O)[nH]1)c1ccc(C(F)(F)F)[nH]c1=O` (stereo not shown) [Compound 221, 2-oxo-N-((6-oxo-1,6-dihydropyridin-2-yl)(phenyl)methyl)-6-(trifluoromethyl)-1,2-dihydropyridine-3-carboxamide] in this work.
An IC50 of 2170 nM was found for `CC(NC(=O)c1ccc(C(F)(F)F)[nH]c1=O)c1ccc(Cl)cc1Oc1cccc(Cl)c1` (stereo not shown) [Compound 222, N-(1-(4-chloro-2-(3-chlorophenoxy)phenyl)ethyl)-2-oxo-6-(trifluoromethyl)-1,2-dihydropyridine-3-carboxamide] in this work.
An IC50 greater than 10000 nM was found for `O=C(Nc1cccc(O)c1)c1ccc(C(F)(F)F)[nH]c1=O` [Compound 224, N-(3-hydroxyphenyl)-2-oxo-6-(trifluoromethyl)-1,2-dihydropyridine-3-carboxamide] in this work.
An IC50 of 4650 nM was found for `CCc1cccc(NC(=O)c2ccc(C(F)(F)F)[nH]c2=O)c1` [Compound 225, N-(3-ethylphenyl)-2-oxo-6-(trifluoromethyl)-1,2-dihydropyridine-3-carboxamide] in this work.
An IC50 of 8050 nM was found for `Cc1cccc(NC(=O)c2ccc(C(F)(F)F)[nH]c2=O)c1` [Compound 226, 2-oxo-N-(m-tolyl)-6-(trifluoromethyl)-1,2-dihydropyridine-3-carboxamide] in this work.
An IC50 of 9850 nM was found for `O=C(Nc1cccc(Cl)c1)c1ccc(C(F)(F)F)[nH]c1=O` [Compound 227, N-(3-chlorophenyl)-2-oxo-6-(trifluoromethyl)-1,2-dihydropyridine-3-carboxamide] in this work.
An IC50 of 1400 nM was found for `O=C(Nc1cccc2cc(O)ccc12)c1ccc(C(F)(F)F)[nH]c1=O` [Compound 229, N-(6-hydroxynaphthalen-1-yl)-2-oxo-6-(trifluoromethyl)-1,2-dihydropyridine-3-carboxamide] in this work.
An IC50 of 30 nM was found for `Cc1ccc2c(c1O)CCCC2NC(=O)c1ccc(C(F)(F)F)[nH]c1=O` (stereo not shown) [Compound 231, N-(5-hydroxy-6-methyl-1,2,3,4-tetrahydronaphthalen-1-yl)-2-oxo-6-(trifluoromethyl)-1,2-dihydropyridine-3-carboxamide] in this work.
An IC50 of 2690 nM was found for `COc1c(C)ccc2c1CCCC2NC(=O)c1ccc(C(F)(F)F)[nH]c1=O` (stereo not shown) [Compound 232, N-(5-methoxy-6-methyl-1,2,3,4-tetrahydronaphthalen-1-yl)-2-oxo-6-(trifluoromethyl)-1,2-dihydropyridine-3-carboxamide] in this work.
An IC50 of 1320 nM was found for `Cc1ccc2c(c1)C(NC(=O)c1ccc(C(F)(F)F)[nH]c1=O)CCO2` (stereo not shown) [Compound 233, N-(6-methylchroman-4-yl)-2-oxo-6-(trifluoromethyl)-1,2-dihydropyridine-3-carboxamide] in this work.
An IC50 of 740 nM was found for `Cc1ccc2c(c1)C(NC(=O)c1ccc(C(F)(F)F)[nH]c1=O)CCS2` (stereo not shown) [Compound 236, N-(6-methylthiochroman-4-yl)-2-oxo-6-(trifluoromethyl)-1,2-dihydropyridine-3-carboxamide] in this work.
An IC50 of 490 nM was found for `Cc1ccc2c(c1)C(NC(=O)c1ccc(C(F)(F)F)[nH]c1=O)CC2` (stereo not shown) [Compound 237, N-(6-methyl-2,3-dihydro-1H-inden-1-yl)-2-oxo-6-(trifluoromethyl)-1,2-dihydropyridine-3-carboxamide] in this work.
An IC50 of 680 nM was found for `Cc1ccc2c(c1)CCC2NC(=O)c1ccc(C(F)(F)F)[nH]c1=O` (stereo not shown) [Compound 238, N-(5-methyl-2,3-dihydro-1H-inden-1-yl)-2-oxo-6-(trifluoromethyl)-1,2-dihydropyridine-3-carboxamide] in this work.
An IC50 of 100 nM was found for `COc1ccc2c(c1)Oc1cc(OC)ccc1C2NC(=O)c1cc(-c2ccccc2)c(C(F)(F)F)[nH]c1=O` [Compound 239, N-(3,6-dimethoxy-9H-xanthen-9-yl)-2-oxo-5-phenyl-6-(trifluoromethyl)-1,2-dihydropyridine-3-carboxamide] in this work.
An IC50 of 110 nM was found for `COc1ccc2c(c1)Oc1cc(OC)ccc1C2NC(=O)c1cc(C)c(C(F)(F)F)[nH]c1=O` [Compound 240, N-(3,6-dimethoxy-9H-xanthen-9-yl)-5-methyl-2-oxo-6-(trifluoromethyl)-1,2-dihydropyridine-3-carboxamide] in this work.
An IC50 of 70 nM was found for `COc1ccc2c(c1)Sc1ccccc1C2NC(=O)c1ccc(C(F)(F)F)[nH]c1=O` (stereo not shown) [Compound 242, N-(3-methoxy-9H-thioxanthen-9-yl)-2-oxo-6-(trifluoromethyl)-1,2-dihydropyridine-3-carboxamide] in this work.
An IC50 of 2160 nM was found for `COc1ccccc1C(NC(=O)c1ccc(C(F)(F)F)[nH]c1=O)c1cccc(C)c1` (stereo not shown) [Compound 243, N-((2-methoxyphenyl)(m-tolyl)methyl)-2-oxo-6-(trifluoromethyl)-1,2-dihydropyridine-3-carboxamide] in this work.
An IC50 of 290 nM was found for `COc1ccccc1C(NC(=O)c1ccc(C(F)(F)F)[nH]c1=O)c1ccc(C)cc1` (stereo not shown) [Compound 244, N-((2-methoxyphenyl)(p-tolyl)methyl)-2-oxo-6-(trifluoromethyl)-1,2-dihydropyridine-3-carboxamide] in this work.
